Measured values from patent US20240316513A1, “METHOD AND APPARATUS FOR ON-SITE PREPARATION AND DOSING OF AN ENZYME-CONTAINING DETERGENT FORMULATION” (CHRISTEYNS, priority 2021, published 2024).

These substances were tested against T1, lipase enzyme (Thermomyces lanuginosus, UniProt O59952, N255R/T253R) (assay: Effect of surfactant concentration on lipase activity in the washing liquor). Conditions: not given.
T1 construct: purchased Novozymes LIPEX 100 L
Type: biochemical
Method: (§1) The total hydrolysis of rapeseed oil in a wash process was tested with washing liquors that were always comprising the same concentration of a lipase enzyme concentrate. A blank test was performed without any added surfactant. This blank test served as the reference with which could be compared the other results obtained with the same washing liquor samples into which one of a number of different non-ionic surfactants were added.
(§2) For each liquor was tested the appearance of free oleic acid generated from the hydrolysis of a standard amount of rapeseed oil with which the liquor was brought in contact. Monitored by High Performance Liquid Chromatography (HPLC) was the quantitative release of free oleic acid (C18:1 fatty acid) in the washing liquor and/or present on the textile, as explained in the protocols that are described in detail in our copending patent application having the attorney docket reference PAT2549761 EP00 and filed on the same day as this application. Because oleic acid is the main fatty acid in the triglycerides of rapeseed oil, the generation of this acid as free fatty acid it is an excellent quantitative marker for the hydrolysis of rapeseed oil, in this context thus also for the activity of the lipase enzyme.
Extra experiments were performed with 5EO-isoC13 surfactant.

T1 sequence (O59952 23-291 T253R/N255R): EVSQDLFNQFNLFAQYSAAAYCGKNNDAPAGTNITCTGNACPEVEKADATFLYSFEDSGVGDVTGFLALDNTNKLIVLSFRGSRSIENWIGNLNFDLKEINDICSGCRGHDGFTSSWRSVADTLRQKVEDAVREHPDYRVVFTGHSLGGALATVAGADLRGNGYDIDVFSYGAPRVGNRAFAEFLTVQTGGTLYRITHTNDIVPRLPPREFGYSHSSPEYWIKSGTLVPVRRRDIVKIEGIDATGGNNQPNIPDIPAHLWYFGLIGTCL

Substance	surfactant concentration at which the suppressing activity on lipase becomes noticeable [ppm by weight]	surfactant concentration until which the suppressing effect further grows
5EO-isoC13	10	about 100 ppm by weight

Same assay, conditions: from about 100 up to 250 ppm by weight surfactant

Substance	suppressing effect when further increasing the surfactant presence
5EO-isoC13	remains about the same

What follows are substances tested against T1, lipase enzyme (assay: Total hydrolysis of rapeseed oil in a wash process: effect of surfactants on lipase enzyme activity (free oleic acid by HPLC)). Conditions: about 100 ppm by weight surfactant; about 0.2 g/litre lipase concentrate; pH about 9.6; about 50° C.; 2° fH; compared with blank and LES (Sample C).
Type: biochemical
Method: as §1
In the experiments, the lipase concentrate was always present in a concentration of about 0.2 gram of the concentrate per litre of total liquor.
The washing tests were performed at a temperature of about 50° C. The water in the formulations was demineralised water obtained by reverse osmosis (RO).
Different washing liquors were prepared containing about 100 ppm by weight of a selected surfactant, to be compared with a blank liquor containing only the lipase enzyme concentrate and no surfactants.
as §2
A series of tests were performed using washing liquors having a hardness of 2° fH. […] For each surfactant choice 2 duplicate samples were tested, except for Sample J (3 duplicates) and Sample K (only 1 sample tested). […] Also shown for each bar with a surfactant is an error bar showing the difference between the lowest and the highest of the duplicates.

Substance	effect of the surfactant on lipase activity in the washing liquor (in words)
C8-C16 APG-DP of 1.5 [Sample J]	much lower depressing effect
5EO-isoC13	not better than the conventional LES surfactant
C8-C10 APG-DP of 1.7 [Sample K]	much lower depressing effect
9EO-isoC13 [G]	not better than the conventional LES surfactant
7EO-C13-15 [N]	much larger depressing effect
a mixture of linear C13-C15 alcohol that has been ethoxylated to an average degree of about 3	relatively benign
isotridecyl alcohol ethoxylated to an average degree of ethoxylation of about 3	not better than the conventional LES surfactant
7EO-isoC13 [F]	not better than the conventional LES surfactant
C9-C11 fatty alcohol alkoxylated with an average ethoxylation degree of about 6 and an average propoxylation degree of about 4 [Sample O]	worse than the LES reference
C8-C10 alkyl polyglucoside (APG) with an average degree of polymerisation (DP) of 1.5	much lower depressing effect
5EO-C13-C15 [M]	relatively benign
C12-C14 amine oxide [P]	significant boost
10EO-isoC13 [H]	not better than the conventional LES surfactant

Same assay, conditions: about 100 ppm by weight surfactant; about 0.2 g/litre lipase concentrate; pH about 9.6; about 50° C.; hardness 2° fH

Substance	lipase activity relative to the blank liquor (A), set at 100%
Lauryl ether sulphate [Sample C]	about 40%
Linear Alkyl Benzene Sulphonate [Sample B]	12%
